According to patent publication US20090081153A1, “COMBINATION OF SYNTHETIC ANTIMICROBIAL POLYMERS AND SESQUITERPENOID COMPOUNDS” (POLYMEDIX, INC., priority 2007, published 2009):

What was measured:
E. coli = test: Antimicrobial disc assay against E. coli; type: cell-based; details: another assay, comparison with traditional antibiotics; results not shown
E. coli ATCC 25922 = test: Inactivation kinetics, E. coli ATCC 25922 viability; type: cell-based; details: Compound C 31.25 μg/ml, Nerolidol 200 μM
From the text: The surviving cell numbers (log10) were plotted against time for each treatment. The average slopes were obtained using linear regression analysis and were used to calculate D-values for each treatment using D=−1/slope.

**Q.** How did the “Impact of sesquiterpenoids on activity against E. coli” value (E. coli) turn out when CN[C@H](CC(C)C)C(=O)N[C@H]1C(=O)N[C@@H](CC(N)=O)C(=O)N[C@H]2C(=O)N[C@H]3C(=O)N[C@H](C(=O)N[C@H](C(=O)O)c4cc(O)cc(O)c4-c4cc3ccc4O)[C@H](O)c3ccc(c(Cl)c3)Oc3cc2cc(c3O[C@@H]2O[C@H](CO)[C@@H](O)[C@H](O)[C@H]2O[C@H]2C[C@](C)(N)[C@H](O)[C@H](C)O2)Oc2ccc(cc2Cl)[C@H]1O [vancomycin] was run?
**A.** Its value is “no impact”.

**Q.** How did the “D-value (Decimal log reduction time)” value (E. coli ATCC 25922; D=−1/slope of log10 survivors vs time) turn out when C=CC(C)(O)CCC=C(C)CCC=C(C)C (mixture of isomers) [Nerolidol, nerolidol] was run?
**A.** Its value is 260.80 min.

**Q.** And the Surviving cell numbers (E. coli ATCC 25922; Time 0 min)?
**A.** Its Surviving cell numbers is 8.83 log10.

**Q.** What about the Surviving cell numbers (E. coli ATCC 25922; Time 5 min) of the same compound?
**A.** The Surviving cell numbers was 8.80 log10.

**Q.** And the Surviving cell numbers (E. coli ATCC 25922; Time 10 min)?
**A.** The Surviving cell numbers was 8.79 log10.

**Q.** What about the Surviving cell numbers (E. coli ATCC 25922; Time 15 min) of the same compound?
**A.** The Surviving cell numbers was 8.79 log10.

**Q.** What about the Surviving cell numbers (E. coli ATCC 25922; Time 30 min) of the same compound?
**A.** Its Surviving cell numbers is 8.77 log10.

**Q.** How did the “Impact of sesquiterpenoids on activity against E. coli” value (E. coli) turn out when gentamicin was run?
**A.** Its value is “no impact”.
